Source: PMC8808171, “Nonselective TRPC channel inhibition and suppression of aminoglycoside-induced premature termination codon readthrough by the small molecule AC1903” (The Journal of Biological Chemistry, 2022)

Biological target: T1, TRPC4 (Homo sapiens, UniProt Q9UBN4)
T1 construct: expressed in transfected cells; host or cells: HEK T-REx (tetracycline-induced)
Assay: Whole-cell patch-clamp recordings of EA-activated TRPC4 currents in HEK T-REx cells
Format: cell-based
Conditions: EA 30 nM
Protocol: B) Representative current–voltage relationship for one (Tet+) HEK T-Rex cell expressing TRPC4, showing current after activation by EA (30 nM) and subsequent inhibition by addition of AC1903 (10 μM). C, quantified data from experiments represented by (A) (scatter plots showing current amplitudes at +100 mV (black circles) or −100 mV (white circles) from three independent experiments; bars represent mean ± SD; n = 3). ∗ indicates statistically significant difference between samples according to paired t test (p < 0.05). EA, (-)-englerin A; TRPC, transient receptor potential canonical.
For electrophysiology experiments, cells were plated at a low density of 20 to 30% onto round coverslips (13 mm diameter or 5 × 5 mm), and TRPC4 expression in HEK T-REx was induced with 1 μg ml^−1 tetracycline 24 h before experimentation. Experiments were carried out at room temperature. […] The patch-clamp currents were recorded using an Axopatch 200B amplifier, digitized by a Digidata 1440 and recorded to a computer using pCLAMP10 (Molecular Devices). The data were filtered at 1 kHz and analyzed offline using Clampfit 10.7 software and Origin 2019b software (OriginLab). […]
Inhibition of G418-induced premature stop codon readthrough […]

T1 sequence (Q9UBN4 1-893 isoform Q9UBN4-2): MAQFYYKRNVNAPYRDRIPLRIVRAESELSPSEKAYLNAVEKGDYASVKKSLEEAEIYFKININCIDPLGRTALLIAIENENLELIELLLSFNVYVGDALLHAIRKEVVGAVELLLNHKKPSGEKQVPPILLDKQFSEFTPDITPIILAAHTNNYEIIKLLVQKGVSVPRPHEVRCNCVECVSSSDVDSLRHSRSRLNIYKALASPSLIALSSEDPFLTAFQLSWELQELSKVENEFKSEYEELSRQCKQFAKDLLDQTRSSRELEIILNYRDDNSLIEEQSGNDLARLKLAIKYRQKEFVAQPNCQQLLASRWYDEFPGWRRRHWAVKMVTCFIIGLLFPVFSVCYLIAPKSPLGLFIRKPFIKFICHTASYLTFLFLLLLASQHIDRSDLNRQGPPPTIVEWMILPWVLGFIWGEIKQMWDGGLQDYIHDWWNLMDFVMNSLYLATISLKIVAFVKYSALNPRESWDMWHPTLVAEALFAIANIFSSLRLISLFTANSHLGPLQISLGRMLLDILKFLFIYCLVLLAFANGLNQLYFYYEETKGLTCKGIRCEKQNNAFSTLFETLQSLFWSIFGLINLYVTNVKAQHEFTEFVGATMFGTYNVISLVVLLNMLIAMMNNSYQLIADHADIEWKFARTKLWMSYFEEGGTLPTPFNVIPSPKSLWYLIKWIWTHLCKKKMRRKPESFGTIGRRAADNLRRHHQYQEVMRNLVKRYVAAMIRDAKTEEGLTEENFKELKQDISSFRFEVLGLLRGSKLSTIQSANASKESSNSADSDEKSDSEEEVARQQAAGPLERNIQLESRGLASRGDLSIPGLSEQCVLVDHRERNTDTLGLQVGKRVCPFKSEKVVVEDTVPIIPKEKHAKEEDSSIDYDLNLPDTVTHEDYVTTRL

c1ccc(Cn2c(NCc3ccco3)nc3ccccc32)cc1 [AC1903]
inhibition of EA-activated currents (10 μM AC1903, whole-cell patch clamp): fully and reversibly inhibited | inhibition of EA-activated TRPC4 currents, cumulative addition (AC1903 0.3–30 μM): concentration-dependent inhibition
